The subject of the assay is white spots. Briefly: Ozone applied through tray over teeth and gums with in situ orthodontic bands; teeth examined for white spots. As to conditions: ozone introduced for up to 2 minutes. The format is in vivo. An excerpt: The method includes disposing the resilient elastomeric tray over the teeth 124 and orthodontic bands 160 applied thereto.
Ozone introduced into the cavity 136 via the port 150 is provided for a period of time to treat the white spots and sterilize the orthodontic bands 160.
Thereafter, the ozone is evacuated from the cavity 136 via the nozzle 128 and the tray 120 is removed from the arched upper or lower teeth 124.
The tray is disposed over teeth and gums with in situ orthodontic bands and ozone introduced for up to 2 minutes.

As to `O=[O+][O-]` [ozone], the “examination of teeth for white spots after ozone treatment” value is given as “beneficial results”.

For the origin of these results see US7802989B2, “Ozone tray” (CurOzone Ireland Ltd., priority 2000, dated 2010).
